# Laboratory results taken from ChEMBL document CHEMBL1146740, “New analogue of arenastatin A, a potent cytotoxic spongean depsipeptide, with anti-tumor activity” (Bioorg Med Chem Lett, 2004).
# Key:
# [1] = test system: Mus musculus; assay: In vivo antitumor activity (reduction of tumor volume) was determined against lewis lung carcinoma, subcutaneously in mice at a dose of 10 mg/kg; type: functional; conditions: route intravenous
# [2] = In vivo antitumor activity (reduction of tumor volume) was determined over treated/control mice at a dose of 10 mg/kg; type: functional
# [3] = test system: KB 3-1; assay: Inhibitory activity was evaluated for potent cytotoxic effect on KB-3-1 cells; type: functional, cell-based; conditions: Homo sapiens
# [4] = In vivo antitumor activity (reduction of tumor volume) was determined over treated/control mice at a dose of 5 mg/kg; type: functional
# [5] = In vivo antitumor activity (reduction of tumor volume) was determined over treated/control mice at a dose of 2.5 mg/kg; type: functional
# [6] = test system: Mus musculus; assay: In vivo antitumor activity (reduction of tumor volume) was determined against lewis lung carcinoma, subcutaneously in mice at a dose of 2.5 mg/kg; type: functional; conditions: route intravenous
# [7] = test system: Mus musculus; assay: In vivo antitumor activity (reduction of tumor volume) was determined against lewis lung carcinoma, subcutaneously in mice at a dose of 5 mg/kg; type: functional; conditions: route intravenous
# [8] = In vivo antitumor activity (reduction of tumor volume) was determined over treated/control mice at a dose of 1.65 mg/kg; type: functional
# [9] = In vivo antitumor activity (reduction of tumor volume) was determined over treated/control mice at a dose of 3.3 mg/kg; type: functional
# [10] = test system: Mus musculus; assay: In vivo antitumor activity (reduction of tumor volume) was determined against lewis lung carcinoma, subcutaneously in mice at a dose of 3.3 mg/kg; type: functional; conditions: route intravenous
# [11] = test system: Mus musculus; assay: In vivo antitumor activity (reduction of tumor volume) was determined against lewis lung carcinoma, subcutaneously in mice at a dose of 1.65 mg/kg; type: functional; conditions: route intravenous
SMILES,Tumor volume [1] [cm*3],T/C [2],IC50 [3] [µg/mL],T/C [4],T/C [5],Tumor volume [6] [cm*3],Tumor volume [7] [cm*3],T/C [8],T/C [9],Tumor volume [10] [cm*3],Tumor volume [11] [cm*3]
COc1ccc(C[C@H]2NC(=O)/C=C/C[C@@H]([C@H](C)[C@H]3O[C@@H]3c3ccccc3)OC(=O)[C@H](C(C)(C)C)OC(=O)CCNC2=O)cc1,4.9,0.71,0.01,1.03,0.96,6.6,7.1,–,–,–,–
COc1ccc(C[C@H]2NC(=O)/C=C/C[C@@H]([C@H](C)[C@H]3O[C@@H]3c3ccccc3)OC(=O)[C@H](C(C)C)OC(=O)CCNC2=O)cc1,–,–,0.03,–,–,–,–,–,–,–,–
CO[C@@]12[C@H](COC(N)=O)C3=C(C(=O)C(C)=C(N)C3=O)N1C[C@@H]1N[C@@H]12 [MITOMYCIN],–,–,–,–,–,–,–,0.62,0.48,3.3,4.2
